The results in this text go back to BindingDB's records for doi:10.7270/Q2F769WQ (University of Pittsburgh, 2007).

For this assay, the target named is T1, Dual specificity protein phosphatase 1 (Homo sapiens, UniProt P28562).
T1 sequence (P28562 whole entry): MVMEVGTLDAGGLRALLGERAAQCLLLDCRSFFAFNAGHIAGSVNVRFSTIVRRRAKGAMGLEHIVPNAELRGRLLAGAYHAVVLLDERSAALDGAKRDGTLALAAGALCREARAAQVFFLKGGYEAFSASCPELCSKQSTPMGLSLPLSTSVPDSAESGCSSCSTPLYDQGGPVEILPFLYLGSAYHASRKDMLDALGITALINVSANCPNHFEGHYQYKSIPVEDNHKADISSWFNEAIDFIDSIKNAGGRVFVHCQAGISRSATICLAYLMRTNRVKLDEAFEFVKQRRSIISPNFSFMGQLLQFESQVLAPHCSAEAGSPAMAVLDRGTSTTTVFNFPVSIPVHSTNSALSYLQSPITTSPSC
Kind of assay: concentration-response of DUSP1 blockers – biochemical, in vitro, confirmation, dose response (AID 551). Conditions: pH 7; 22 °C.
The term IC50 denotes the midpoint of a concentration-inhibition curve. `O=C1C(=C2C(=O)c3ccccc3C2=O)Nc2ccccc21` [MLS000071738]: the IC50 is > 50 µM.
For `Cc1ccc(NC(=O)CSc2nnc(-c3ccc(S(=O)(=O)N4CCCC4)cc3)o2)cc1C` [MLS000071775], the IC50 was > 50 µM.
For the compound `COc1ccc(-n2nnnc2SCC(=O)Nc2ccc3c(c2)OCCO3)c(OC)c1` [MLS000071837], the IC50 was > 50 µM.
In turn, `COc1ccc(-n2c(NC(=O)c3ccco3)c(C#N)c3nc4ccccc4nc32)cc1` [MLS000079925] returned an IC50 of 15.3 µM.
As to `COc1ccc(Cn2c(C)nc3c(c2=O)c2nc4ccccc4nc2n3Cc2ccco2)cc1` [MLS000079944], it took 17 µM to reach half-maximal inhibition (IC50).
`Cc1ccc(-c2csc(NC(=O)c3ccno3)n2)cc1` [MLS000081820] registered an IC50 of 39 µM.
In turn, `CC(C)Sc1nc2sc3c(c2c2nnc(SCC(=O)NCc4ccco4)n12)CCCC3` [MLS000082957] returned an IC50 of 10.4 µM.
As for `Nc1nc2c(s1)CCc1c-2cnn1-c1ccccc1` [MLS000085948], the figure is > 50 µM; as for `Cc1cc(NC(=O)c2ccc(S(=O)(=O)N3CCCC3)cc2)nc2c1c(=O)oc1ccccc12` [MLS000091355], 38.2 µM.
To `O=C(CSc1nc2c(cnn2-c2ccccc2)c(=O)[nH]1)c1ccc(Cl)cc1` [MLS000091816] belongs > 50 µM.
With `Cn1c(=O)c2cc(S(=O)(=O)NCCC(=O)NCCC3=CCCCC3)ccc2n(C)c1=O` [MLS000092640], the 50% inhibitory concentration (IC50) is > 50 µM.
As for `COc1ccc(OC)c(NC(=O)CSc2nnc(Cc3cccn3C)n2CCc2ccccc2)c1` [MLS000092931], the IC50 was > 50 µM.
For `Cn1c(=O)oc2cc(S(=O)(=O)NCCC(=O)NC3CCCC3)ccc21` [MLS000093068], the IC50 was > 50 µM.
In the case of `FC(F)(F)c1ccc(N2CCOCC2)c(Nc2nc3ccccc3n3cnnc23)c1` [MLS000093276], the IC50 came out at 22.7 µM.
`COC(=O)c1ccccc1NC(=O)CN1C(=O)C2CCCN2c2ncc(Cl)cc21` (stereo not given) [MLS000094302] returned an IC50 of 35.9 µM.
As to `CC1CCN(S(=O)(=O)c2ccc3c(c2)c(=O)c(C(=O)NC2CCCC2)cn3C)CC1` [MLS000095109], the IC50 was > 50 µM.
The compound `CCc1ccc(NC(=O)CSc2nc3ccccc3c(=O)n2CCN2CCOCC2)cc1` [MLS000095236] gave an IC50 of 45.8 µM.
For the compound `Cc1nn(Cc2ccccc2)c(C)c1NC(=O)CSc1nc2sc3c(c2c(=O)n1C)CCC3` [MLS000096728], the IC50 was > 50 µM.
For `Cc1nn2c(-c3cccc(NC(=O)c4ccco4)c3)nnc2c2ccccc12` [MLS000097401], the IC50 is > 50 µM.
Take `N#CC(C(=O)CSc1nnc(Cc2cccs2)n1C1CCCCC1)c1nc2ccccc2[nH]1` (stereo not given) [MLS000098387]: the IC50 was > 50 µM.
Regarding `Cc1c(N=c2c(=O)c3ccccc3c2=O)c(=O)n(-c2ccccc2)n1C` [MLS000105950], the IC50 turned out to be 8.85 µM. This counts as single-digit micromolar.
For the compound `CCOc1ccc2noc3c2c1C(=O)c1ccccc1-3` [MLS000106837], the IC50 was determined as 49.2 µM. This IC50 lies about 5.6-fold higher than the previous one.
`COc1ccc2noc3c2c1C(=O)c1ccccc1-3` [MLS000106874] had an IC50 of 16.1 µM. Against the preceding compound, the IC50 is about 3.1-fold lower.
As for `[O-]/[N+](=C\c1ccncc1)c1ccc(Br)cc1` [MLS000109219], the figure is > 50 µM; as for `CCOC(=O)c1ccc2c(c1)C1C=CCC1C(C(=O)O)N2` (stereo not given) [MLS-0025126.0001], 15.8 µM.
As for `O=C(NC1(O)C(=O)c2ccccc2C1=O)c1ccccc1` [N-(2-hydroxy-1,3-dioxo-2-indenyl)benzamide], half-maximal inhibition (IC50) was put at 14.2 µM.
With `O=C(Nc1cccc(-c2nc3ccccc3[nH]2)c1)c1cccc(NC(=O)c2ccco2)c1` [N-[3-[[3-(1H-benzimidazol-2-yl)phenyl]carbamoyl]phenyl]furan-2-carboxamide], the IC50 was > 50 µM.
Regarding `Nc1ccc2ncccc2c1N` [SMR000015817], the IC50 was > 50 µM.
With `COc1ccc(-n2c(SCC(=O)N3CCCC3)nc3c([nH]c4ccccc43)c2=O)cc1` [SMR000018494], the IC50 is > 50 µM.
To `CCCCCC1CCC(C(=O)O)CC1` (stereo not given) [SMR000019012] belongs > 50 µM.
With `O=C(OC1CCCCC1)c1ccc2c(c1)C1C=CCC1C(C(=O)O)N2` (stereo not given) [SMR000019385], 7.66 µM corresponded to half-maximal inhibition (IC50). This counts as single-digit micromolar.
With `CC12CC(NC(=O)N1c1ccc(C(=O)N3CCN(c4ccc(F)cc4)CC3)cc1)c1ccccc1O2` (stereo not given) [SMR000026617], the IC50 was > 50 µM.
As to `CCCCn1c(NC(=O)c2ccccc2)c(C#N)c2nc3ccccc3nc21` [SMR000060333], the IC50 was 23.5 µM.
Regarding `N#Cc1c(N2CCCC2)nc(N)c2c(N)nc(N3CCCC3)cc12` [SMR000061605], the midpoint of inhibition, the IC50, lay at 0.136 µM.
On to `CCOC(=O)c1ccc(Nc2c3[nH]cccc-3c(=O)n2Cc2ccc(F)cc2)cc1` [ethyl 4-[[6-[(4-fluorophenyl)methyl]-5-oxo-7H-pyrrolo[3,4-b]pyridin-7-yl]amino]benzoate], for which the 50% inhibitory concentration (IC50) was > 50 µM.
